We go through 2 compounds from paper PMC11676667, “Pharmacokinetics of Oral Cannabinoid Δ8-Tetrahydrocannabivarin and Its Main Metabolites in Healthy Participants” (Pharmaceuticals, 2024).

SMILES strings stand for the structures.

The data set can be described thus: Plasma pharmacokinetics after single oral dose of Δ8-THCV in MCT oil (LC-MS/MS, non-compartmental analysis). Particulars: of 504 plasma samples from 15 participants after oral Δ8-THCV. It counts as in vivo, human. Here is the method:
The study was a two-phase, dose-ranging, placebo-controlled trial in 21 healthy participants to assess the safety, tolerability, PK, and PD of an oral formulation of Δ8-THCV. A detailed description of the study was published elsewhere. The study product was a medium-chain triglyceride (MCT) oil oral formulation of Δ8-THCV at a concentration of 50 mg/mL. […] MCT oil was used as placebo.
Twenty-one participants were enrolled in the clinical study and plasma samples from 15 participants were sent to our laboratory for pharmacokinetic evaluation. Of these, 3 participants were enrolled in Phase 1, an unblinded, placebo-controlled, single ascending dose design and 12 were enrolled in Phase 2, a double-blind, randomized, placebo-controlled, within-participant crossover design. At each study session, participants received one of the following oral doses: placebo, 12.5 mg, 25 mg, 50 mg, 100 mg, and 200 mg of the aforementioned Δ8-THCV formulation in MCT. Study visits were separated by a washout period of a minimum of one week and maximum of 28 days. Participants entered the research facility the night before the session and received the study product in the morning after a standardized high-fat, high-calorie breakfast. PK blood samples included in this analysis were collected prior to dosing and 0.5, 1, 2, 4, 6, and 8 h after dose. Immediately following collection into K2EDTA tubes, blood samples were placed on wet ice, centrifuged, and plasma was immediately frozen at −80 °C until shipment to the bioanalytical laboratory (iC42 Clinical Research and Development, University of Colorado, Aurora, CO, USA) on dry ice.
Plasma samples were analyzed using a validated high-performance liquid chromatography–tandem mass spectrometry (LC-MS/MS) assay. The assay included Δ8-THCV and its main metabolites 11-OH-Δ8-THCV and Δ8-THCV-COOH, Δ9-THCV and its main metabolite Δ9-THCV-COOH, and Δ9-THC and Δ8-THC as well as their main metabolites (Figure 3). The complete list of analyzed compounds and a summary of the key performance parameters of the assay are presented in Appendix A and Table A1 and Table A2. […] For the PK analysis, concentrations below the lower limit of quantification were set to 0 ng/mL. PK parameters were calculated using non-compartmental analysis (Phoenix WinNonlin version 8.4., Certara, Princeton, NJ, USA). Statistical analysis was carried out using GraphPad Prism (version 10, Boston, MA, USA).

Regarding `CCCCCc1cc(O)c2c(c1)OC(C)(C)[C@@H]1CC=C(C)CC21` (some centres unmarked) [Δ8-THC, Δ8-tetrahydrocannabinol, reference compound], the “number of positive plasma samples” value was “No positive samples”.
The value for `CCCCCc1cc(O)c2c(c1)OC(C)(C)[C@@H]1CCC(C)=CC21` (some centres unmarked) [Δ9-THC, Δ9-tetrahydrocannabinol, reference compound] was “No positive samples”.
